Experimental data: ChEMBL document CHEMBL6092191, “Advancing Cancer Immunotherapy through Engineering New PD-L1 Degraders: A Comprehensive Study from Small Molecules to PD-L1-Specific Peptide-Drug Conjugates” (J Med Chem, 2024)
Calls of active or inactive are those of the source. The calls are words filed in the database; no cut-off is given here.

Key:
[1] = Drug uptake in human PC-9 cells at 10 uM by fluorescence microscopy; format: ADME, cell-based; settings: pc-9, 10 µM
[2] = molecular target: COP9 signalosome complex subunit 5 (Homo sapiens) (UniProt Q92905); assay: Induction of PD-L1 degradation in human NCI-H460 cells at 10 uM incubated for 24 hrs by Western blot analysis; format: cell-based
Chain of COP9 signalosome complex subunit 5 (Homo sapiens) (Q92905 2-334 limits assumed, one chain of several): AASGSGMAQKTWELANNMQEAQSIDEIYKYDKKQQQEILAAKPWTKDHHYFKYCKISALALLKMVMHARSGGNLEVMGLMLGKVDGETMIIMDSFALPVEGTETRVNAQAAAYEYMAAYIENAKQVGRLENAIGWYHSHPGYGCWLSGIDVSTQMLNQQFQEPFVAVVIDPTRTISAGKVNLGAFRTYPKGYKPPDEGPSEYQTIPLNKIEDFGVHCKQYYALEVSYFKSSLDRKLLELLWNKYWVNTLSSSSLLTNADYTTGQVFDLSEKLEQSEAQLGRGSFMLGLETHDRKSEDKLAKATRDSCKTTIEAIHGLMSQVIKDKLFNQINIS

3T3-L1 = assay: Antiproliferative activity against mouse 3T3-L1 cells at 10 uM incubated for 4 days; format: toxicity, cell-based; settings: 3t3-l1, 96 h, time 4 day
[3] = Antiproliferative activity against human HTori-3 cells at 10 uM incubated for 4 days; format: toxicity, cell-based; settings: htori-3, 96 h, time 4 day
HEK-293T = assay: Antiproliferative activity against HEK293T cells at 10 uM incubated for 4 days; format: toxicity, cell-based; settings: human, 96 h, time 4 day
[4] = molecular target: COP9 signalosome complex subunit 5 (Homo sapiens) (UniProt Q92905); assay: Induction of PD-L1 degradation in human NCI-H460 cells at 10 uM incubated for 2 days by Western blot analysis; format: cell-based; settings: time 2.0 day
[5] = Toxicity in C57BL/6 mouse model xenografted with […] cells assessed as obvious damage in spleen at 10 mg/kg, ip administered daily for 10 days by H and E staining based analysis; format: organism-based; settings: in vivo, 240 h, time 10 day
[6] = system: Lewis lung carcinoma cell line; assay: Antitumor T-cell immune response in Lewis lung carcinoma cells xenografted in C57BL/6 mouse model assessed as increase in GrB level in tumor at 10 mg/kg, ip administered daily for 10 days by ELISA; format: functional, organism-based; settings: time 10.0 day
[7] = system: Lewis lung carcinoma cell line; assay: Anticancer activity against Lewis lung carcinoma cells xenografted in C57BL/6 mouse model assessed as tumor growth inhibition at 10 mg/kg, ip administered daily for 10 days; format: functional, organism-based; settings: time 10.0 day
[8] = Toxicity in C57BL/6 mouse model xenografted with […] cells assessed as obvious damage in kidney at 10 mg/kg, ip administered daily for 10 days by H and E staining based analysis; format: organism-based; settings: in vivo, 240 h, time 10 day
[9] = system: Lewis lung carcinoma cell line; assay: Antitumor T-cell immune response in Lewis lung carcinoma cells xenografted in C57BL/6 mouse model assessed as increase in CD3+ CD8+ infiltration in CD45+ T cells in tumor at 10 mg/kg, ip administered daily for 10 days by flow cytometry; format: functional, organism-based; settings: time 10.0 day
[10] = Toxicity in C57BL/6 mouse model xenografted with […] cells assessed as obvious damage in lung at 10 mg/kg, ip administered daily for 10 days by H and E staining based analysis; format: organism-based; settings: in vivo, 240 h, time 10 day
[11] = Toxicity in C57BL/6 mouse model xenografted with […] cells assessed as change in serum creatinine level at 10 mg/kg, ip administered daily for 10 days; format: organism-based; settings: in vivo, 240 h, time 10 day
[12] = system: Lewis lung carcinoma cell line; assay: Antitumor T-cell immune response in Lewis lung carcinoma cells xenografted in C57BL/6 mouse model assessed as increase in ratio of CD8+ to CD4+ T cells in tumor at 10 mg/kg, ip administered daily for 10 days by flow cytometry; format: functional, organism-based; settings: time 10.0 day
[13] = Toxicity in C57BL/6 mouse model xenografted with […] cells assessed as body weight loss at 10 mg/kg, ip administered daily for 10 days; format: organism-based; settings: in vivo, 240 h, time 10 day
[14] = Toxicity in C57BL/6 mouse model xenografted with […] cells assessed as obvious damage in heart at 10 mg/kg, ip administered daily for 10 days by H and E staining based analysis; format: organism-based; settings: in vivo, 240 h, time 10 day
[15] = Toxicity in C57BL/6 mouse model xenografted with […] cells assessed as change in BUN level at 10 mg/kg, ip administered daily for 10 days; format: organism-based, Blood; settings: in vivo, 240 h, time 10 day
[16] = Toxicity in C57BL/6 mouse model xenografted with […] cells assessed as change in ALT level at 10 mg/kg, ip administered daily for 10 days; format: organism-based, Blood; settings: in vivo, 240 h, time 10 day
[17] = system: Lewis lung carcinoma cell line; assay: Antitumor T-cell immune response in Lewis lung carcinoma cells xenografted in C57BL/6 mouse model assessed as increase in IFN-gamma level in tumor at 10 mg/kg, ip administered daily for 10 days by ELISA; format: functional, organism-based; settings: time 10.0 day
[18] = Toxicity in C57BL/6 mouse model xenografted with […] cells assessed as change in AST level at 10 mg/kg, ip administered daily for 10 days; format: organism-based, Blood; settings: in vivo, 240 h, time 10 day
[19] = system: Lewis lung carcinoma cell line; assay: Antitumor T-cell immune response in Lewis lung carcinoma cells xenografted in C57BL/6 mouse model assessed as decrease in CD3+ CD4+ population in CD45+ T cells in tumor at 10 mg/kg, ip administered daily for 10 days by flow cytometry; format: functional, organism-based; settings: time 10.0 day
[20] = Toxicity in C57BL/6 mouse model xenografted with […] cells assessed as obvious damage in liver at 10 mg/kg, ip administered daily for 10 days by H and E staining based analysis; format: organism-based; settings: in vivo, 240 h, time 10 day
[21] = system: Lewis lung carcinoma cell line; assay: Antitumor T-cell immune response in Lewis lung carcinoma cells xenografted in C57BL/6 mouse model assessed as increase in TNF-alpha level in tumor at 10 mg/kg, ip administered daily for 10 days by ELISA; format: functional, organism-based; settings: time 10.0 day
[22] = system: Lewis lung carcinoma cell line; assay: Anticancer activity against Lewis lung carcinoma cells xenografted in C57BL/6 mouse model at 10 mg/kg, ip administered daily for 10 days relative to control; format: functional; settings: 240 h, time 10 day, read-out: TGI
[23] = system: Lewis lung carcinoma cell line; assay: Antitumor activity against Lewis lung carcinoma cells xenografted in C57BL/6 mouse model at 24.5 mg/kg, ip administered daily for 8 days relative to control; format: functional; settings: 192 h, time 8 day, read-out: TGI
[24] = system: Lewis lung carcinoma cell line; assay: Antitumor T-cell immune response in Lewis lung carcinoma cells xenografted in C57BL/6 mouse model assessed as increase in ratio of CD8+ to CD4+ T cells in tumor at 24.5 mg/kg, ip administered daily for 8 days by flow cytometry; format: functional, organism-based; settings: time 8.0 day
Mus musculus = assay: Biodistribution in C57BL/6 mouse model bearing […] lung carcinoma cells assessed as increase in fluorescence signal in tumor at 2 mg/kg, iv measured 4 hrs post-injection by IVIS analysis; format: ADME, organism-based; settings: in vivo
[25] = molecular target: COP9 signalosome complex subunit 5 (Homo sapiens) (UniProt Q92905); assay: Induction of PD-L1 degradation in human NCI-H460 cells at 10 uM by Western blot analysis; format: cell-based; settings: time <= 36.0 hrs

For `COc1ccc2cc3[n+](cc2c1OCCOCCOCCN)CCc1cc2c(cc1-3)OCO2.[Cl-]`, the Drug uptake [1] was “Time-dependent-effect” and the Activity [2] was “Active”.

With `COc1ccc2cc3[n+](cc2c1OCCCCCN)CCc1cc2c(cc1-3)OCO2.[Cl-]` the Drug uptake [1] was “Time-dependent-effect” and the Activity [2] was “Active”.

With `COc1cc2c(cc1OC)-c1cc3ccc(OC)c(OCCNC(=O)OCc4ccc(SSC[C@H](N)C(=O)NCCCCCC(=O)N[C@@H](CC(N)=O)C(=O)N[C@@H](Cc5ccc(O)cc5)C(=O)N[C@@H](CO)C(=O)N[C@@H](CCCCN)C(=O)N5CCC[C@H]5C(=O)N[C@H](C(=O)N[C@@H](CC(=O)O)C(=O)N[C@@H](CCCNC(=N)N)C(=O)N[C@@H](CCC(N)=O)C(=O)N[C@@H](Cc5ccc(O)cc5)C(=O)N[C@@H](Cc5cnc[nH]5)C(=O)N[C@@H](Cc5ccccc5)C(=O)O)[C@@H](C)O)cc4)c3c[n+]1CC2.[Cl-]` the Activity (3T3-L1) was “Toxic”, the Activity [3] was “Toxic” and the Activity (HEK-293T) was “Toxic”. For the same molecule, the Activity [4] was “Active”.

With `COc1cc2c(cc1OC)-c1cc3ccc(OC)c(OCCOCCOCCN)c3c[n+]1CC2.[Cl-]` the Drug uptake [1] was “Time-dependent-effect” and the Activity [2] was “Active”.

For `COc1ccc2cc3[n+](cc2c1OCCCN)CCc1cc2c(cc1-3)OCO2.[Cl-]`, the Drug uptake [1] was “Time-dependent-effect” and the Activity [2] was “Active”.

With `COc1ccc2cc3[n+](cc2c1OCCN)CCc1cc2c(cc1-3)OCO2.[Cl-]` the Drug uptake [1] was “Time-dependent-effect” and the Activity [2] was “inactive”.

In the case of `COc1cc2c(cc1OC)-c1cc3ccc(OC)c(OC)c3c[n+]1CC2.[Cl-]` [PALMATINE CHLORIDE], the Activity [5] is reported as “Non-toxic”, the Activity [6] is reported as “Active” and the Activity [7] is reported as “Active; Highest Efficacy Of Tumor Growth Suppression Among Pmt Derivatives”. The Activity [8] was “Non-toxic”, the Activity [9] was “Active” and the Activity [10] was “Non-toxic”. The Activity [11] was “Non-toxic”, the Activity [12] was “Active” and the Activity [13] was “Non-toxic”. The Activity [14] was “Non-toxic”, the Activity [15] was “Non-toxic” and the Activity [16] was “Non-toxic”. For the same molecule, the Drug uptake [1] was “Time-dependent-effect”, the Activity [17] was “Active” and the Activity [2] was “Active”. The Activity [18] was “Non-toxic”, the Activity [19] was “Active” and the Activity [20] was “Non-toxic”. The Activity [21] was “Active”.

For `COc1ccc2cc3[n+](cc2c1OC)CCc1cc2c(cc1-3)OCO2.[Cl-]` [BERBERINE CHLORIDE], the Drug uptake [1] was “Time-dependent-effect” and the Activity [2] was “Active”.

For `COc1cc2c(cc1OC)-c1cc3ccc(OC)c(OCCCN)c3c[n+]1CC2.[Cl-]`, the Activity [5] was “Non-toxic”, the Activity [6] was “Active” and the Activity [7] was “Active”. The Activity [8] was “Non-toxic”, the Activity [9] was “Active” and the Activity [10] was “Non-toxic”. The inhibition in vivo at 10 mg/kg [22] was 65%, the Activity [11] was “Non-toxic” and the Activity [12] was “Active”. The Activity [13] was “Non-toxic”, the Activity [14] was “Non-toxic” and the Activity [15] was “Non-toxic”. The Activity [16] was “Non-toxic”, the Drug uptake [1] was “Time-dependent-effect” and the Activity [17] was “Active”. For the same molecule, the Activity [2] was “Active”, the Activity [18] was “Non-toxic” and the Activity [19] was “Active”. For the same molecule, the Activity [20] was “Non-toxic” and the Activity [21] was “Active”.

In the case of `C[C@@H](O)[C@H](NC(=O)[C@@H]1CCCN1C(=O)[C@H](CCCCN)NC(=O)[C@H](CO)NC(=O)[C@H](Cc1ccc(O)cc1)NC(=O)[C@H](CC(N)=O)NC(=O)CCCCCNC(=O)[C@@H](N)CS)C(=O)N[C@@H](CC(=O)O)C(=O)N[C@@H](CCCNC(=N)N)C(=O)N[C@@H](CCC(N)=O)C(=O)N[C@@H](Cc1ccc(O)cc1)C(=O)N[C@@H](Cc1cnc[nH]1)C(=O)N[C@@H](Cc1ccccc1)C(=O)O`, the inhibition in vivo at 24.5 mg/kg [23] is reported as 37%, the Activity (3T3-L1) is reported as “Non-toxic” and the Activity [3] is reported as “Non-toxic”. For the same molecule, the Activity [24] was “Active”, the Activity (HEK-293T) was “Non-toxic” and the Activity [4] was “inactive”.

For `CCN1/C(=C/C=C/C=C/C2=[N+](CCCCCC(=O)NCCN3C(=O)CC(SC[C@H](N)C(=O)NCCCCCC(=O)N[C@@H](CC(N)=O)C(=O)N[C@@H](Cc4ccc(O)cc4)C(=O)N[C@@H](CO)C(=O)N[C@@H](CCCCN)C(=O)N4CCC[C@H]4C(=O)N[C@H](C(=O)N[C@@H](CC(=O)O)C(=O)N[C@@H](CCCNC(=N)N)C(=O)N[C@@H](CCC(N)=O)C(=O)N[C@@H](Cc4ccc(O)cc4)C(=O)N[C@@H](Cc4cnc[nH]4)C(=O)N[C@@H](Cc4ccccc4)C(=O)O)[C@@H](C)O)C3=O)c3ccc(S(=O)(=O)O)cc3C2(C)C)C(C)(C)c2cc(S(=O)(=O)O)ccc21` (stereo partly drawn), the Drug uptake (Mus musculus) was “Active”.

For `COc1cc2c(cc1OC)-c1cc3ccc(OC)c(OCCNC(=O)CCCC[C@@H]4SC[C@@H]5NC(=O)N[C@@H]54)c3c[n+]1CC2`, the Activity [25] was “Active”.

For `COc1cc2c(cc1OC)-c1cc3ccc(OC)c(OCCCCCN)c3c[n+]1CC2.[Cl-]`, the Activity [5] was “Non-toxic”, the Activity [6] was “Active” and the Activity [7] was “Active”. The Activity [8] was “Non-toxic”, the Activity [9] was “Active” and the Activity [10] was “Non-toxic”. For the same molecule, the inhibition in vivo at 10 mg/kg [22] was 68%, the Activity [11] was “Non-toxic” and the Activity [12] was “Active”. For the same molecule, the Activity [13] was “Non-toxic”, the Activity [14] was “Non-toxic” and the Activity [15] was “Non-toxic”. For the same molecule, the Activity [16] was “Non-toxic”, the Drug uptake [1] was “Time-dependent-effect” and the Activity [17] was “Active”. For the same molecule, the Activity [2] was “Active”, the Activity [18] was “Non-toxic” and the Activity [19] was “Active”. The Activity [20] was “Non-toxic” and the Activity [21] was “Active”.
